Reference: patent US5869023A, “Composition for MRI comprising both a positive and a negative contrast agent” (Nycomed Imaging AS, priority 1993, dated 1999)

How the values were obtained:
Human blood samples = assay: In vitro MR imaging of contrast agent doped human blood samples, viable vs freeze-injured cells (Example 2); format: cell-based
Method: Human blood samples with different hematocrit readings (Ht) of 27%, 45% and 69% were prepared to provide sample models for different levels of compartmentalization between intracellular and extracellular fluids. To initiate cellular level injury, samples with these Ht readings were frozen to effect cell membrane destruction. Finally a control sample of cell free plasma was also used.
To the test samples were added (a) a positive ECF contrast agent (GdDTPA-BMA at a dosage corresponding to 0.2 mmol Gd/kg); (b) a negative ECF contrast agent (DyDTPA-BMA at a dosage corresponding to 0.6 mmol Dy/kg); and (c) a positive ECF contrast agent and a negative ECF contrast agent (GdDTPA-BMA and DyDTPA-BMA at dosages corresponding to 0.2 mmol Gd/kg and 0.6 mmol Dy/kg).
These doped samples, and controls to which no contrast agent was added, were imaged together at ambient temperature in the head coil of a Siemens Magnetom operating at 0.5 T using T1 -weighted (TR/TE 500/30 ms), T2 -weighted (TR/TE 1500/90 ms) and proton density-weighted (TR/TE 1500/30 ms) echo sequences. The signal intensity for each contrast agent doped sample was normalized to the corresponding undoped sample and the results are set forth as ratios in FIGS. 1 to 3 hereto, squares, circles and diamonds representing the ratios for T1 -weighted, PD-weighted and T2 -weighted sequences respectively.

[1] = test system: infarcted and nonischemic myocardium; details: porcine model; cited from earlier work
myocardial infarction = details: first positive, second negative agent, sequential; cited from earlier work
[2] = test system: infarcted and non-ischemic myocardium; assay: Microdialysis kinetics of Gd and Dy in extracellular space of pig myocardium (Example 5)
Method: (§1) Myocardial infarction was induced in 5 anaesthetized pigs of either sex (weight 25-30 kg) by ligating a diagonal branch of the left anterior descending artery (LAD), at thoracotomy. Microdialysate probes were inserted in ischemic and non-ischemic myocardium. The pigs were sacrificed 2 hours after administration of contrast media. 4 hour post occlusion Gd-DTPA-BMA (0.3 mmol/kg) and Dy-DTPA-BMA (1.0 mmol/kg) were simultaneously administered in vivo with an injection time of one minute. The total occlusion time was thus 6 hours.
(§2) The microdialysate was collected every 10 minutes and measured for gadolinium and dysprosium using inductively coupled plasma atomic emission spectrometry (ICP-AES). The microdialysis equipment consisted of a CMA®/20 microdialysis probe with a 10 mm flexible membrane and a diameter of 0.5 mm (CMA AB, Stockholm, Sweden). […] The probe was perfused with a Krebs-Ringer phosphate buffer (pH 7.4) at a speed of 2 μl/min and a dead space, in the system, of 10 μl. […] One probe was inserted into the central part of the ischemic area and another probe was placed in non-ischemic myocardium in the lateral wall using the Seldinger technique to minimize mechanical injury to myocardium and probe membrane. A CMA® microdialysis pump (CMA 100) was used with two syringes to perfuse the probes.
(§3) In addition, gadolinium and dysprosium were determined in dialysates from five pigs by ICP-AES. Twenty μl portions were sampled in plastic tubes and kept frozen until analysis. The samples were diluted to 5.02 ml with ultra-pure water. To enhance the sensitivity of measurements, an ultrasonic nebulizer was used instead of the pneumatic one. The limit of detection for the method is about 2 μg/l for both gadolinium and dysprosium in the measuring solution. This means that about 3 μmol/l can be detected in the dialysates.

[3] = test system: infarcted and non-ischemic myocardium; details: pig, in vivo
Method: as §1, §2, §3

[4] = test system: normal and infarcted myocardium; details: rat, in vivo
Method: Thirty seven Sprague Dawley rats (200-400 gm) were anaesthetized by an intraperitoneal injection of sodium pentobarbital (50 mg/kg body weight). After tracheostomy, animals were ventilated using a small animal respirator. The heart was exposed following a left thoracotomy through the 4th intercostal space and a surgical suture was used to ligate the anterior branch of the left coronary artery near its origin beneath the left atrial appendage using a snare ligature. The presence of occlusion was visually confirmed by noting the development of myocardial cyanosis. After 1 hour occlusion, reperfusion was initiated by loosening the snare ligature. A catheter was placed into a femoral vein to inject contrast media. All animals which received contrast agent were administered doses at 45 minutes of reflow. After 1 hour reperfusion, each heart was excised and rinsed in 0.9% saline, patted dry with gauze, and a cotton swab was inserted into the left ventricular cavity to expand the chamber. Each heart was wrapped in clear plastic wrap to minimise dehydration during imaging.
To group 1 rats (n=9) were administered 0.2 mmol/kg of GdDTPA-BMA immediately followed by 1.0 mmol/kg of DyDTPA-BMA. Group 2 (n=7) received no contrast agents. Two spin-echo images were obtained from the midventricle of each heart, a T1-weighted image with TR/TE=300/20 and NEX=4, and T2-weighted image with TR/TE=3000/60 and NEX=2. After imaging, each heart was sliced at the midventricular level and soaked in a 2% solution of TTC at 37° C. for 15 minutes to define myocardial infarction.
Samples of normal and infarcted myocardium were retained for analysis of Gd and Dy content by means of ICP-MS.

[5] = test system: normal and reperfused infarcted myocardium; assay: MR imaging and T2/T2* relaxation of rat hearts after single agents, protocol 2 (Example 6); format: in vivo, Sprague Dawley rats
Text: Images were acquired at room temprature using a GE CSI 2.0 T system. Each heart was positioned with its long axis parallel to the main magnetic field such that axial images would present short axis views of the heart. All images were obtained using a slice thickness of 2 mm, FOV of 30 mm, and a raw data matrix of 128×256 interpolated to 256×256 during reconstruction. TR/TE settings used for spin echo images are indicated below. Gradient echo images were obtained using a TR of 600 ms, with the radio frequency pulse power set very low such that no signal saturation was evident following multiple pulses and images would contain no T1 weighting.
Group 3 (n=11) received 1.0 mmol/kg DyDTPA-BMA, group 4 (n=7) received 0.2 mmol/kg of GdDTPA-BMA and group 5 (n=7) received no contrast agents. The imaging protocol for each heart consisted of spin echo T1-weighted (TR/TE=300/20 ms, NEX=4) and T2-weighted (TR/TE=4000/80 ms; NEX=2), a set of four-echo T2-weighted images (TR=4000 ms, TE=20, 40, 60 and 80 ms, NEX=2) for estimation of regional T2 values, and a set of gradient-recalled images (TE=10, 15, 20 and 30 ms, NEX=4) for estimation of region T2* values. TTC staining of the heart was performed to verify the presence of infarction.
Signal intensities were measured from ROIs selected over infarcted and uninfarcted myocardium. The same ROIs were applied to all images obained from each heart.
A series of gradient recalled and spin echo MR images were obtained to resolve the effects of GdDTPA-BMA on T2-weighted images and DyDTPA-BMA on T1-weighted images and also to more thoroughly characterize the differences in contrast media-induced T2 and T2* enhancement between infarcted and normal myocardium. Table III summarises the observed alterations in regional signal intensity and relaxation rates following administration of either GdDTPA-BMA or DyDTPA-BMA.

[6] = test system: infarcted and non-ischemic myocardium; assay: MR imaging of excised pig hearts, double contrast (Example 5); format: in vivo; details: T1- and proton density-weighted; vs no contrast agent or Dy-DTPA-BMA only
Method: The total occlusion time was thus 6 hours.
Following sacrifice, the hearts were extirpated and rinsed in isotonic saline to remove remaining blood. The hearts were examined ex vivo at ambient temperature in the MR equipment and then cut into approximately 8 mm thick transverse slices and soaked for 10-20 minutes in a 1% aqueous solution of triphenyltetrazolium chloride (TTC) at 37° C. TTC stains non-ischemic myocardium brick red. The slices were inspected visually for unstained areas of infarction.
MR images were obtained in an identical manner to that described in Example 4.
In the transverse images, three ROI's were placed in infarcted myocardium. Four ROI's were placed in non-ischemic myocardium, two in the anterior wall and two in the posterior wall of the left ventricle. The mean signal intensity (S) was measured in each ROI. One ROI was placed anterior to the heart in an area free from visible artefacts, in order to measure the standard deviation (SD) of the background signal. These measurements were used to calculate the contrast (C) and contrast-to-noise (C/N) ratios between infarcted (inf) and non-ischemic (nonisch) myocardium using the formulae defined in Example 4.
In each heart, non-ischemic myocardium and infarction were represented by a mean value from measurements in two slices.

[7] = test system: infarcted and non-ischemic myocardium; details: pig, in vivo; remark: listed apart in the source
Method: as §1
The total amount of gadolinium and dysprosium in samples of infarcted and non-ischemic myocardium was quantified by ICP-AES.
Paired t-tests (two-tailed) were used to compare the gadolinium and dysprosium content, respectively, in infarcted and non-ischemic myocardium within the group. […] In addition, the extracellular concentrations of gadolinium and dysprosium were further compared with the content of gadolinium and dysprosium in tissue samples.

[8] = four-echo T2-weighted, TR=4000 ms
[9] = gradient recalled echo images, Dy 1.0 mmol/kg n=11 or Gd 0.2 mmol/kg n=7
[10] = gradient-recalled images, TE=10, 15, 20 and 30 ms
[11] = spin echo T1 weighted, TR/TE=300/20 ms
[12] = spin echo T2 weighted, TR/TE=4000/80 ms

Compound: CNC(=O)CN(CCN(CCN(CC(=O)[O-])CC(=O)NC)CC(=O)[O-])CC(=O)[O-].[Gd+3] [GdDTPA-BMA, reference compound]
- signal intensity ratio (doped/undoped), T1-weighted (Human blood samples; T1-weighted TR/TE 500/30 ms, 0.5 T): increased signal intensity effect
- signal intensity ratio (doped/undoped), other sequences (Human blood samples; T2-weighted (1500/90) and proton density-weighted (1500/30)): barely noticed in the other sequences
- discrimination between "viable" and "non-viable" samples (Human blood samples; all sequences): no significant discrimination
- distribution / enhancement in 6-hour-old myocardial infarction [1]: infarct accumulation
- distribution in infarcted heart (myocardial infarction): distributed to the infarcted area of the heart
- concentration course in dialysate ([2]; infarcted myocardium): increased gradually
- duration of plateau in dialysate ([2]; infarcted myocardium): 60 min
- concentration in dialysate after early peak ([2]; non-ischemic myocardium): diminished with time
- time to plateau concentration in dialysate [3]: 20 to 30 min
- time of early peak in dialysate ([3]; iv): ≤ 10 min
- metal content in infarcted region vs normal myocardium [4]: commensurably greater content of gadolinium in that region than in normal myocardium
- concentration ratio, reperfused infarcted vs normal myocardium ([4]; 15 min): approximately 2.5 fold
- differential enhancement of reperfused infarction, T1-weighted ([5]; T1-weighted images): significant differential enhancement
- enhancement of infarcted region, single agent vs both agents ([5]; T1-weighted images): significantly less than that noted when both agents were present
- delineation of infarcted region, T2-weighted ([5]; T2-weighted images): delineated by both agents
- signal intensity of infarcted region, T2-weighted ([5]; T2-weighted images): significantly reduced compared to hearts with no contrast
- signal intensity of normal region, T2-weighted ([5]; T2-weighted images): not different from that of hearts with no contrast
- T2, infarct [5, 8]: 31.1 ± 1.2 ms
- T2, normal myocardium [5, 8]: 34.7 ± 0.7 ms
- GRE signal intensity, infarct [5, 9]: 185 ± 49
- GRE signal intensity, normal myocardium [5, 9]: 200 ± 40
- T2*, infarct [5, 10]: 13.2 ± 1.5 ms
- T2*, normal myocardium [5, 10]: 17.1 ± 2.2 ms
- SE T1 signal intensity, infarct [5, 11]: 350 ± 34
- SE T1 signal intensity, normal myocardium [5, 11]: 184 ± 21
- SE T2 signal intensity, infarct [5, 12]: 35 ± 7
- SE T2 signal intensity, normal myocardium [5, 12]: 42 ± 4
- infarction signal / visualization [6]: enhanced infarction signal in the T1- and proton density-weighted sequences, resulting in improved infarction visualization
- concentration in infarcted vs non-ischemic myocardium [7]: more than threefold higher concentration
